ChEMBL document CHEMBL3632485 (Eur J Med Chem, 2015)

How the values were obtained:
[1] = molecular target: Carbonic anhydrase 9 (Homo sapiens, UniProt Q16790)
Description: Inhibition of human recombinant carbonic anhydrase 9 expressed in Escherichia coli preincubated for 6 hrs by stopped flow CO2 hydrase assay

[2] = molecular target: Carbonic anhydrase 12 (Homo sapiens, UniProt O43570); test: Inhibition of human recombinant carbonic anhydrase 12 expressed in Escherichia coli preincubated for 6 hrs by stopped flow CO2 hydrase assay
[3] = molecular target: Carbonic anhydrase 1 (Homo sapiens, UniProt P00915); test: Inhibition of human recombinant carbonic anhydrase 1 expressed in Escherichia coli preincubated for 6 hrs by stopped flow CO2 hydrase assay
[4] = molecular target: Carbonic anhydrase 2 (Homo sapiens, UniProt P00918); test: Inhibition of human recombinant carbonic anhydrase 2 expressed in Escherichia coli preincubated for 6 hrs by stopped flow CO2 hydrase assay

Sequence of Carbonic anhydrase 12 (O43570 whole entry): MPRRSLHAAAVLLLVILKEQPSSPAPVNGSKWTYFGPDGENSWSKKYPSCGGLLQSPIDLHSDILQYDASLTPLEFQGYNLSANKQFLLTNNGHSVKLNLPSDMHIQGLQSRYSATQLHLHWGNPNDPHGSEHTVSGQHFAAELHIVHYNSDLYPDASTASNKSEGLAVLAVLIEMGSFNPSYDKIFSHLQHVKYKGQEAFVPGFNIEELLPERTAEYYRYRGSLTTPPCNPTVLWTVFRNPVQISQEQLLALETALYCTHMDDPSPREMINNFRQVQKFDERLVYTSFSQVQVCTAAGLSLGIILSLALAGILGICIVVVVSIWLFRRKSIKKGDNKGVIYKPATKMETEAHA
Sequence of Carbonic anhydrase 1 (P00915 whole entry): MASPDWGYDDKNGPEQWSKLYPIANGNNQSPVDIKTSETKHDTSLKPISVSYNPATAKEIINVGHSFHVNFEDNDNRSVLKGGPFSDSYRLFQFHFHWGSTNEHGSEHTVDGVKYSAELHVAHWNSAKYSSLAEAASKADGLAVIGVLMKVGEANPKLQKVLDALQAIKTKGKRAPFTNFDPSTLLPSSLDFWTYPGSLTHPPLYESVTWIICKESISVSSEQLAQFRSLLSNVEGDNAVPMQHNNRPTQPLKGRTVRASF

Row | SMILES | Ki [1] [nM] | further results
1 | NS(=O)(=O)c1ccc(-n2nc(C(=O)N/N=C3\C(=O)Nc4ccccc43)cc2-c2ccccc2)cc1 | 8.8 | –
2 | NS(=O)(=O)c1ccc(-n2nc(C(=O)N/N=C3\C(=O)Nc4ccc(Cl)cc43)cc2-c2ccccc2)cc1 | 7.4 | –
3 | NS(=O)(=O)c1ccc(-n2nc(C(=O)N/N=C3\C(=O)Nc4ccc(Br)cc43)cc2-c2ccccc2)cc1 | 20 | –
4 | Cc1ccc2c(c1)/C(=N/NC(=O)c1cc(-c3ccccc3)n(-c3ccc(S(N)(=O)=O)cc3)n1)C(=O)N2 | 4.7 | –
5 | NS(=O)(=O)c1ccc(-n2ncc(C(=O)N/N=C3\C(=O)Nc4ccccc43)c2-c2ccccc2)cc1 | 52.9 | –
6 | NS(=O)(=O)c1ccc(-n2ncc(C(=O)N/N=C3\C(=O)Nc4ccc(Cl)cc43)c2-c2ccccc2)cc1 | 9.7 | –
7 | NS(=O)(=O)c1ccc(-n2ncc(C(=O)N/N=C3\C(=O)Nc4ccc(Br)cc43)c2-c2ccccc2)cc1 | 7.8 | –
8 | NS(=O)(=O)c1ccc(-n2ncc(C(=O)N/N=C3\C(=O)Nc4ccc([N+](=O)[O-])cc43)c2-c2ccccc2)cc1 | 15.7 | –
9 | NS(=O)(=O)c1ccc(-n2ncc(C(=O)N/N=C3\C(=O)N(Cc4ccccc4)c4ccccc43)c2-c2ccccc2)cc1 | – | Ki [2]: 6.5 nM
10 | Nc1c(C(=O)N/N=C2\C(=O)Nc3ccccc32)cnn1-c1ccc(S(N)(=O)=O)cc1 | 2.8 | –
11 | Nc1c(C(=O)N/N=C2\C(=O)Nc3ccc(Cl)cc32)cnn1-c1ccc(S(N)(=O)=O)cc1 | 2.5 | –
12 | Nc1c(C(=O)N/N=C2\C(=O)Nc3ccc(Br)cc32)cnn1-c1ccc(S(N)(=O)=O)cc1 | 9.4 | –
13 | COc1ccc2c(c1)/C(=N/NC(=O)c1cnn(-c3ccc(S(N)(=O)=O)cc3)c1N)C(=O)N2 | 3.5 | –
14 | Nc1c(C(=O)N/N=C2\C(=O)Nc3ccc([N+](=O)[O-])cc32)cnn1-c1ccc(S(N)(=O)=O)cc1 | 7.4 | Ki [2]: 5.4 nM; Ki [3]: 70.4 nM; Ki [4]: 23.1 nM
